Assay results: patent publication US9180160B2, “Complement inhibitors for treatment of injury from intracerebral hemorrhage” (The Trustees of the University of Pennsylvania, priority 2008, dated 2015)
Where “and” joins values, the source holds several entries; their conditions need not be identical. Equal entries are not always repeated. Entries after “also recorded” stand apart in the source; their conditions may differ.

Assays:
Type in all cases: in vivo
[1] = system: C57BL/6J mice subjected to ICH; test: Corner turn test (laterality index) after ICH; conditions: for corner turn test (laterality index): 1 mg/kg i.p. first at 6 h and 12 h after ICH, then twice daily for 72 hours, versus vehicle
Procedure: (§1) Animal Preparation and Intracerebral Infusion. Adult male C57BL/6J mice weighing 23-30 g were used. Mice were randomized to receive intraperitoneal injection of either C3aRA (1 mg/kg) (SB290157, Calbiochem, Darmstadt, Germany) diluted in PBS and DMSO (1.16% v/v), or an equal volume of vehicle (PBS and DMSO, 1.16% DMSO v/v) either 45 minutes prior to ICH induction or 6 and 12 hours after induction of ICH, followed in both cohorts by twice daily doses for 72 hours. […] Sham animals were given PBS and DMSO (1.16% v/v) in the same manner.
Mice were anesthetized with a single intraperitoneal dose of ketamine (90 mg/kg) and xylazine (5 mg/kg). Next, the mice were placed in a stereotactic frame (ASI Instruments, Inc., Warren, Mich., USA) and subjected to ICH using autologous blood infusion as previously described (Rynkowski M A et al, 2008, Nat Protoc 3: 122-128), Briefly, a 1-mm burr hole was drilled 2.3 mm lateral to the midline and 0.2 mm anterior to the bregma. Thirty μL of autologous whole blood were drawn from the tail artery into a capillary tube. A 30-gauge needle was then advanced stereotactically through the burr hole into the right striatum (coordinates: 0.2 mm anterior, 2.3 mm lateral to the bregma, 3.5 mm ventral). […]
Neurofunction and behavioral testing. Sensorimotor function was evaluated by means of the 28-point neurological function score, corner test and forelimb placing tests, which were performed pre-operatively and at 6, 24, 48 and 72 hour post-injury. Navigational memory was evaluated with the means of a Morris water-maze (MWM) test pre-operatively and at 72 hours post ICH. […]
Corner test. […] The number of right and left turns out of 10 total attempts was recorded. The laterality index (LI) and normalized LI were calculated. The laterality index (LI) was calculated for each mouse, according to the formula: LI=(Number of right turns—Number of left turns)/(Total number of turns). The LI for the day before surgery (LIBS) and each of the post surgery days was calculated and normalized using the formula: Normalized LI=(LI+2)/(LIBS+2). […]

[2] = system: C57BL/6J mice subjected to ICH; test: Brain water content (edema) after ICH; conditions: for brain water content versus vehicle: 1 mg/kg i.p. first at 6 h and 12 h after ICH
Procedure: as §1
Mice were anesthetized with a single intraperitoneal dose of ketamine (90 mg/kg) and xylazine (5 mg/kg). Next, the mice were placed in a stereotactic frame (ASI Instruments, Inc., Warren, Mich., USA) and subjected to ICH using autologous blood infusion as previously described (Rynkowski M A et al, 2008, Nat Protoc 3: 122-128), Briefly, a 1-mm burr hole was drilled 2.3 mm lateral to the midline and 0.2 mm anterior to the bregma. Thirty μL of autologous whole blood were drawn from the tail artery into a capillary tube. A 30-gauge needle was then advanced stereotactically through the burr hole into the right striatum (coordinates: 0.2 mm anterior, 2.3 mm lateral to the bregma, 3.5 mm ventral). Using a microinfusion pump (KDS220, KD Scientific Inc., Holliston, Mass., USA), 5 μL was delivered at a rate of 1.5 μL per minute. After a 7-minute period, an additional 25 μL was delivered at a constant rate of 1.5 μL per minute. After a period of 10 minutes, the needle was slowly removed, the burr hole was occluded with bone wax and the skin incision was closed with Nexaband® (Abbott Laboratories, North Chicago, Ill.). Sham animals received only needle insertion. Rectal temperature was maintained at 37.0° C. using a feedback-controlled heating lamp, and the animals recovered in a temperature-controlled incubator for 45 minutes post-procedure.
Determination of brain water content. Mice were reanesthetized with Ketamine (80-100 mg/kg i.p.), Xylazine (5-10 mg/kg i.p.) and sacrificed 3 days post-hemorrhage to determine brain water content (sham vehicle n=8 Pre-C3aRA n=8, Post-C3aRA n=11). Brains were removed immediately en bloc and five 2-mm coronal slices were obtained beginning 2-mm from the frontal pole. The brain slices were divided into two hemispheres along the midline. The cortex of each hemisphere was then carefully dissected from the basal ganglia. The cerebellum was retained as a control. Each of the five sections was then weighed on an electronic analytical balance (Model AG 104, Mettler-Toledo, Inc., Columbus, Ohio, USA) to determine the wet weight. The sections were then placed onto pre-weighed cover slips and dried overnight in a vacuum oven for 24 hours to obtain the dry weight. Brain water content (%) was calculated as: ((wet weight-dry weight)/wet weight)×100.
Animal Preparation and Intracerebral Infusion. Adult male C57BL/6J mice weighing 23-30 g were randomized to receive intraperitoneal injection of either C3aRA (1 mg/kg) (SB290157, Calbiochem, Darmstadt, Germany), C5aRA (1 mg/kg), combined C3aRA and C5aRA or an equal volume of DMSO. Each drug was diluted in PBS (1.16% v/v) and given 6 and 12 hours after ICH induction, followed by twice daily doses for 72 hours. The sham group of animals was given PBS and DMSO (1.16% v/v) in the same manner. Mice were anesthetized with a single intraperitoneal dose of ketamine (90 mg/kg) and xylazine (5 mg/kg). […]

[3] = system: model of focal ischemic stroke; test: Dose-response trial in a model of focal ischemic stroke; conditions: comparing 0.1, 0.5, 1 and 5 mg/kg
[4] = 1 mg/kg i.p. 45 minutes prior to ICH, then twice daily, 72 hours after ICH, mean±SEM
[5] = then twice daily, 72 hours after ICH

Row | Compound | corner test performance (normalized laterality index) ([1]; 1 mg/kg i.p. 45 minutes prior to ICH, then twice daily, 72 hours after ICH) | corner turn test (laterality index) [1] | brain water content, ipsilateral basal ganglia [2, 4] [%] | brain water content, ipsilateral cortex [2, 4] | brain water content versus vehicle [2, 5] | water content in the contralateral cortex, the basal ganglia and cerebellum ([2]; pre-ICH dosing 1 mg/kg i.p., 72 hours, versus vehicle-treated and sham) | most effective dose [3] [mg/kg]
1 | NC(N)=NCCC[C@H](NC(=O)COCC(c1ccccc1)c1ccccc1)C(=O)O [C3aRA] | no significant deficits compared with sham animals | significant improvement at 48 hours | 77.43±0.43 | 77.56±0.26% and 77.57±0.26% | mildly decreased brain water content; also recorded: Trend towards decreased edema | not different | 1
2 | Acetyl-Phe-[Orn-Pro-D-cyclohexylalanine-Trp-Arg] [C5aRA] |  | significant improvement at 48 hours |  |  | mildly decreased brain water content |  | 
